Laboratory results: publication PMC9182007, “Statistical Methods in the Study of Protein Binding and Its Relationship to Drug Bioavailability in Breast Milk” (Molecules, 2022)
Where two headings read alike, the source gives them in different places.

What was measured:
[1] = Table S1, coded 1/0; ref DrugBank [7]; cited from earlier work
[2] = NP TLC on non-impregnated control plates; type: physicochemical; conditions: for CNP (Rf, control NP plate): Table S3, non-impregnated NP plate, acetonitrile/acetate buffer pH 7.4/methanol 60:20:20
[3] = RP TLC on non-impregnated control plates; type: physicochemical; conditions: Table S4, non-impregnated RP plate; acetonitrile/acetate buffer pH 7.4/methanol 60:20:20
Protocol: For TLC chromatography, glass plates 20 × 20 cm from Merck, covered with silica gel with the addition of a fluorescent indicator, were used. Normal phase (NP) plates were used with standard Merck TLC Silica gel 60 F254 plates, while in reverse phase (RP) silanized plates RP-2: Merck TLC Silica gel 60 RP-2 F254 were used.
Normal and reversed phase thin layer chromatography (NP TLC and RP TLC respectively) was performed using silica-gel-coated glass plates. Half of them were covered with 2 mg/mL bovine serum albumin solution and half remained pure.
The mobility of the compounds was also determined on the plates with no protein as a modifier. […] The acetate buffer (20 mM) was prepared by dissolving 1.54 g of ammonium acetate in 1 L of distilled water. The pH was then adjusted with a concentrated ammonia solution using a pH meter. The plates were developed in standard, vertical chromatographic chambers, each time using 100 mL of the mobile phase, after the chamber was previously saturated with solvent vapors for approximately 1 h.
The unfolded-protein-impregnated plates and the control plates were scanned with a Desaga CD 60 densitometer. The values of the delay factor (Rf) were collected, i.e., the ratio of the distance traveled by the substance to be analyzed to the distance traveled through the front of the mobile phase. […] The experiment was repeated (for both BSA-coated and control plates) and the Rf values pooled are the mean of both series of experiments.

[4] = target: T1, human serum albumin (HSA) (Homo sapiens, UniProt P02768); assay: in vitro; conditions: immobilized hsa column, pH 7.4
T1 sequence (P02768 25-609): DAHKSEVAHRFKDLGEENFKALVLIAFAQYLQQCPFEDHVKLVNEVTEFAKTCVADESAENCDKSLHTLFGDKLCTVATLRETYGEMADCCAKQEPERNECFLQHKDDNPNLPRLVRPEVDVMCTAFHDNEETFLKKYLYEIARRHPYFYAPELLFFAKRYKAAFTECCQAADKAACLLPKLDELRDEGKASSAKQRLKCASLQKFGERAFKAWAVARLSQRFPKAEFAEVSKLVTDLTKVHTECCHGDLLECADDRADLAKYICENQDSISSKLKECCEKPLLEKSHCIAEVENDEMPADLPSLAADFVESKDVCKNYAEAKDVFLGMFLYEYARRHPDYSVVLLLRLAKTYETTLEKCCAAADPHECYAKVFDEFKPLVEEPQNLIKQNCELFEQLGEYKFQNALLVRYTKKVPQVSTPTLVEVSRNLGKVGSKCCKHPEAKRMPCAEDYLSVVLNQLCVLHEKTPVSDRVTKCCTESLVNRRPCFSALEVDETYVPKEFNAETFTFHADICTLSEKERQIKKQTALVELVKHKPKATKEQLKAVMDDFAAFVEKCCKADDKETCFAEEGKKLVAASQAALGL

[5] = target: T2, bovine serum albumin (BSA) (Bos taurus, UniProt P02769); assay: NP TLC on plates impregnated with bovine serum albumin; type: binding; conditions: for NP (Rf, BSA-impregnated NP plate): Table S3, NP plate impregnated with 2 mg/mL BSA, pH 7.4 mobile phase
T2 construct: purchased Sigma Aldrich
T2 sequence (P02769 25-607): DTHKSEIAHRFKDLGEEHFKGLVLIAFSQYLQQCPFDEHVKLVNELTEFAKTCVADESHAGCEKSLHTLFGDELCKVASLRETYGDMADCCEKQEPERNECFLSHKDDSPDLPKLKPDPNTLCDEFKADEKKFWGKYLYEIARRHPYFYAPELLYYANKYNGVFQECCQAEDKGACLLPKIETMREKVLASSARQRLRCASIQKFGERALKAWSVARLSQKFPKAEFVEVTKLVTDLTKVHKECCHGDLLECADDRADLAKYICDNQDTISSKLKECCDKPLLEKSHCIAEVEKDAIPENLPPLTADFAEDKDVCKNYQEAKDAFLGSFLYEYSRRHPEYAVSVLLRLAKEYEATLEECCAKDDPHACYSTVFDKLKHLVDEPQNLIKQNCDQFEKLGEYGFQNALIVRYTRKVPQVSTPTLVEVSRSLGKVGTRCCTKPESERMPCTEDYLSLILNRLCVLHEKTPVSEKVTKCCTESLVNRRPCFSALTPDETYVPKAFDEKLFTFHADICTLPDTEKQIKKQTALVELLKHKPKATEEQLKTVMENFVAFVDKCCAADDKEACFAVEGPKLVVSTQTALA

plasma protein = conditions: ref DrugBank [7], cited from earlier work
[6] = target: T1, human serum albumin (HSA)
[7] = target: T2, bovine serum albumin (BSA); assay: RP TLC on plates impregnated with bovine serum albumin; type: binding; conditions: Table S4, RP plate impregnated with 2 mg/mL BSA; pH 7.4 mobile phase
[8] = HPLC on immobilized artificial membrane column (HPLCIAM); type: physicochemical; conditions: for log k IAM: Table S5, IAM column, pH 7.4; for k IAM: Table S5, retention factor, IAM column, phosphate buffer pH 7.4/acetonitrile 80:20; for kIAM / log kIAM: Table S9, external group
Protocol: High performance liquid chromatography was performed using immobilized human serum albumin column (HPLCHSA) and immobilized artificial membrane (HPLCIAM). HPLC was the source of the log k values (logarithm of retention factor), log kHSA and log kIAM.
The second experiment was performed using an immobilized artificial membrane (IAM) column. The assay was also performed on a Perkin Elmer Series 200 instrument connected to a UV-VIS spectrometer as the detector. The analytical wavelength was the same for all compounds, at 210 nm. […] The mobile phase was a mixture of 10 mM phosphate buffer pH 7.4 and acetonitrile in the ratio 80:20 (v/v). The phosphate buffer was obtained by dissolving the finished tablet in the appropriate amount of distilled water (1 tablet per 200 mL). In this case, it was not necessary to adjust the pH of the buffer using a pH meter.
The phase flow through the system was set to 0.5 mL/min as recommended by the column manufacturer. The solutions were delivered to the column using an autosampler syringe, the injection size was 10 µL.
The experiment was then repeated and the collected retention rates were the mean values of both series.

[9] = Table S1, plasma protein binding given as fraction
[10] = Table S5, retention factor, HSA column, pH 7.4, 25 degrees Celsius
[11] = Table S6, external group (n = 38), given as fraction
[12] = human, immobilized hsa column, pH 7.4

SMILES	CNS+/- [1]	CNP (Rf, control NP plate) [2]	CRP (Rf, control RP plate) [3]	chromatographic logD [4]	NP (Rf, BSA-impregnated NP plate) [5]	PB (plasma protein; [9])	k HSA [6, 10]	RP (Rf, BSA-impregnated RP plate) [7]	log k IAM [8]	k IAM [8]	k HSA ([6]; pH 7.4)	PB (plasma protein; [11])	kHSA [6]	kIAM [8]	log kIAM [8]	log k HSA [6, 12]	log k HSA ([6]; Table S5, HSA, pH 7.4)	CNP (Rf value from the non-impregnated NP plate, control) ([2]; Table S8, external group)	NP (Rf value from the NP plate impregnated with 2 mg/mL BSA solution) ([5]; Table S8, external group)	kHSA ([6]; Table S9, external group)
CC[C@H]1OC(=O)[C@H](C)[C@@H](O[C@H]2C[C@@](C)(OC)[C@@H](O)[C@H](C)O2)[C@H](C)[C@@H](O[C@@H]2O[C@H](C)C[C@H](N(C)C)[C@H]2O)[C@](C)(O)C[C@@H](C)CN(C)[C@H](C)[C@@H](O)[C@]1(C)O [azithromycin]	0	0.63	0.24	-0.64	0.63	0.29	0.23	0.24	-1.20	0.06	–	–	–	–	–	–	–	–	–	–
CCOCCn1c(C2CCN(CCc3ccc(C(C)(C)C(=O)O)cc3)CC2)nc2ccccc21 [bilastine]	–	0.46	0.76	-0.17	0.44	0.87	0.67	0.72	-0.26	0.55	–	–	–	–	–	–	–	–	–	–
COc1ccccc1OCCNCC(O)COc1cccc2[nH]c3ccccc3c12 (stereo not shown) [carvedilol]	0	0.73	–	1.16	0.9	0.98	14.5	–	–	–	–	–	–	–	–	–	–	–	–	–
CCN(CC)C(=O)Nc1ccc(OCC(O)CNC(C)(C)C)c(C(C)=O)c1 (stereo not shown) [celiprolol]	–	0.45	0.75	0.05	0.46	0.275	1.12	0.79	0.77	5.87	–	–	–	–	–	–	–	–	–	–
CN1CCN(C2=Nc3cc(Cl)ccc3Nc3ccccc32)CC1 [clozapine]	–	0.45	–	0.84	0.46	–	6.84	–	1.71	50.94	–	–	–	–	–	–	–	–	–	–
CN1C[C@H](C(=O)N[C@]2(C)O[C@@]3(O)[C@@H]4CCCN4C(=O)[C@H](Cc4ccccc4)N3C2=O)C[C@@H]2c3cccc4[nH]cc(c34)C[C@H]21 [dihydroergotamine]	0	0.72	0.78	-0.64	0.75	0.93	–	0.78	–	–	0.23	–	–	–	–	–	–	–	–	–
CNCC[C@H](Oc1cccc2ccccc12)c1cccs1 [duloxetine]	–	–	–	0.91	–	–	–	–	–	–	–	0.90	8.16	2.84	0.45	–	–	–	–	–
NC(N)=Nc1nc(CSCCC(N)=NS(N)(=O)=O)cs1 [famotidine]	–	0.70	0.98	0	0.71	–	0.99	0.99	–	–	–	–	–	–	–	–	–	–	–	–
NCC1(CC(=O)O)CCCCC1 [gabapentin]	–	–	–	-0.84	–	–	–	–	–	–	–	0.03	0.15	1.70	0.23	–	–	–	–	–
CC(=O)OCC(=O)[C@@]1(O)CC[C@H]2[C@@H]3CCC4=CC(=O)CC[C@]4(C)[C@H]3[C@@H](O)C[C@@]21C [hydrocortisone acetate]	–	0.96	–	-0.18	0.96	0.95	0.66	–	0.45	2.82	–	–	–	–	–	–	–	–	–	–
CN(C)C(=O)C(CCN1CCC(O)(c2ccc(Cl)cc2)CC1)(c1ccccc1)c1ccccc1 [loperamide]	–	0.68	0.75	0.65	0.67	–	–	0.77	–	–	4.47	–	–	–	–	–	–	–	–	–
CN1CCN=C(c2ccccc2)c2cc(Cl)ccc21 [medazepam]	–	0.91	0.66	1.25	0.94	–	–	0.65	1.54	34.65	17.86	–	–	–	–	–	–	–	–	–
OC(CNCC(O)C1CCc2cc(F)ccc2O1)C1CCc2cc(F)ccc2O1 (stereo not shown) [nebivolol]	1	0.75	0.40	0.87	0.75	0.98	7.49	0.40	–	–	–	–	–	–	–	–	–	–	–	–
Cc1cc2c(s1)Nc1ccccc1N=C2N1CCN(C)CC1 [olanzapine]	–	–	–	0.68	–	–	–	–	1.31	20.31	4.83	–	–	–	–	–	–	–	–	–
CCC[C@H](N[C@@H](C)C(=O)N1[C@H](C(=O)O)C[C@@H]2CCCC[C@@H]21)C(=O)OCC [perindopril]	0	0.47	0.57	–	0.46	0.15	0.49	0.58	-0.76	0.18	–	–	–	–	–	-0.31	–	–	–	–
CC(C)NCC(O)COc1cccc2[nH]ccc12 (stereo not shown) [pindolol]	–	0.53	–	0.22	0.52	0.4	1.65	–	0.78	6.09	–	–	–	–	–	–	–	–	–	–
CC(C)C[C@H](CN)CC(=O)O [pregabalin]	–	–	–	-0.87	–	–	–	–	–	–	–	0.00	0.14	1.65	0.22	–	–	–	–	–
CC(CN1c2ccccc2Sc2ccccc21)N(C)C (stereo not shown) [promethazine]	1	0.43	0.49	–	0.42	0.93	5.35	0.47	1.17	14.96	–	–	–	–	–	–	0.73	–	–	–
OCCOCCN1CCN(C2=Nc3ccccc3Sc3ccccc32)CC1 [quetiapine]	1	0.68	0.73	–	0.68	0.83	2.48	0.69	1.23	17.02	–	–	–	–	–	0.39	–	–	–	–
Cc1nc2n(c(=O)c1CCN1CCC(c3noc4cc(F)ccc34)CC1)CCCC2 [risperidone]	–	–	–	0.32	–	–	–	–	0.68	4.83	2.11	–	–	–	–	–	–	–	–	–
CC(C)c1nc(N(C)S(C)(=O)=O)nc(-c2ccc(F)cc2)c1/C=C/[C@@H](O)C[C@@H](O)CC(=O)O [rosuvastatin]	0	0.9	0.92	0.29	0.89	–	1.96	0.88	-0.02	0.96	–	–	–	–	–	–	–	–	–	–
Cc1cncc(CN2CCC(=C3c4ccc(Cl)cc4CCc4cccnc43)CC2)c1 [rupatadine]	–	0.42	0.55	1.09	0.43	0.985	12.38	0.52	0.97	9.29	–	–	–	–	–	–	–	–	–	–
CC(=O)S[C@@H]1CC2=CC(=O)CC[C@]2(C)[C@H]2CC[C@@]3(C)[C@@H](CC[C@@]34CCC(=O)O4)[C@H]12 [spironolactone]	–	0.98	0.78	-0.09	0.96	0.9	0.82	0.77	1.13	13.38	–	–	–	–	–	–	–	–	–	–
CCS(=O)(=O)CCn1c([N+](=O)[O-])cnc1C [tinidazole]	–	–	–	-0.92	–	–	–	–	–	–	–	0.12	–	2.00	0.30	–	–	0.89	0.88	0.12
Cc1ccc(O)c([C@H](CCN(C(C)C)C(C)C)c2ccccc2)c1 [tolterodine]	–	–	–	0.46	–	–	–	–	-0.68	0.21	2.9	–	–	–	–	–	–	–	–	–
CCN(Cc1ccncc1)C(=O)C(CO)c1ccccc1 (stereo not shown) [tropicamid]	1	0.85	0.83	–	0.86	0.45	0.15	0.83	0.03	1.06	–	–	–	–	–	–	-0.82	–	–	–
COc1ccc(C(CN(C)C)C2(O)CCCCC2)cc1 (stereo not shown) [venlafaxine]	–	–	–	0.02	–	0.27	–	–	0.92	8.25	1.05	–	–	–	–	–	–	–	–	–
